The values that follow come from patent US10316021B2, “Heteroarylphenoxy benzamide kappa opioid ligands” (Pfizer Inc., priority 2016, dated 2019).

For data set [1], the target named is T1, human mu opioid receptor (hMOR) (Homo sapiens, UniProt P35372).
T1 construct: expressed in transfected cells; host or cells: CHO cells
The data set can be described thus: Mu radioligand binding assay ([3H]diprenorphine, CHO cell membranes). As to the method:
(§1) Kappa and Mu Radioligand Binding Assay:
Binding assays on membranes from CHO cells expressing human kappa or mu opioid receptors were performed according to standard procedures. Frozen cell paste was homogenized in 50 mM Tris HCl buffer (pH 7.4 @ 4 degrees C.) containing 2.0 mM MgCl2 using a Polytron and spun in a centrifuge at 40,000 g for ten minutes. The final pellet was resuspended in assay buffer (50 mM Tris HCl buffer, pH 7.4, containing 1 mM EDTA, 5 mM MgCl2). Incubations were initiated by the addition of membranes to 96-well plates containing test drugs and [^3H]diprenorphine (0.6 nM final concentration for kappa opioid receptor and 0.5 nM final concentration for mu) in a final volume of 250 μl. Non-specific binding was determined by radioligand binding in the presence of a saturating concentration of naltrexone (10 μM). After a one hour incubation period at room temperature, assay samples were rapidly filtered through PEI coated, GF/B fired Unifilter plates (PerkinElmer) and rinsed with ice-cold 50 mM Tris buffer (pH 7.4). Membrane bound [^3H]diprenorphine levels were determined by liquid scintillation counting of the filterplates in Ecolume scintillation fluid. […] Ki values were calculated according to the Cheng Prusoff equation, Ki=IC50/(1+(L/Kd)), where L is the concentration of the radioligand used in the experiment and the Kd value is the dissociation constant for the radioligand (determined previously by saturation analysis).

For data set [2], the target named is T2, kappa opioid receptor (Mus musculus, UniProt P33534).
T2 construct: from tissue; host or cells: brain of adult male C57BL/6J mice (in vivo)
In words: In vivo receptor occupancy (displacement of [3H]GR103545 in brain). The note with it: subcutaneous dosing. The text has this:
(§2) Adult male C576BL/J6 mice from Jackson Labs (Bar Harbor, Me.) were group housed on individually-vented cage racks, in environmentally-controlled animal quarters (light/dark-6:00 am/6:[…]) for a minimum of 7 days prior to use. For progressive ratio studies, mice were food-restricted to 80-85% of their body weight before testing began. All animal procedures were approved by the Pfizer Inc. IACUC and conducted in accordance with the NIH Guide for the Care and Use of Laboratory Animals.
In Vivo Receptor Occupancy
In vivo receptor occupancy was assessed in adult male C57BL6/J mice. Mice were administered increasing doses (0.001-32 mg/kg s.c.) 30 min prior to administration of the kappa opioid receptor ligand, [^3H]GR103545 (100 μCi/kg, intraorbital). Animals were euthanized 10 min later using cervical dislocation and the brains dissected. One hemisphere was stored at −40° C. for subsequent measurement of compound concentration, the other was homogenized in chilled Tris-HCl buffer (50 mM, pH 7.4; 1:10 w/v) for twenty seconds. Samples of brain homogenate were filtered through 0.3 to 0.5% PEI-soaked GF/B filters, and the filters washed twice with chilled buffer before radioactivity was counted overnight using a scintillation counter. Binding of the ligand in cerebellum was used to determine non-specific binding.

The target of data set [3] is T3, human kappa opioid receptor (hKOR) (Homo sapiens, UniProt P41145).
T3 construct: expressed in transfected cells; host or cells: CHO cells
In words: Kappa radioligand binding assay ([3H]diprenorphine, CHO cell membranes). The conditions noted are these: for Selectivity hMOR/hKOR: selectivity ratio calculated by dividing the hMOR Ki by the hKOR Ki. As to the method: as §1
Binding assays on membranes from CHO cells expressing human kappa or mu opioid receptors were performed according to standard procedures. Frozen cell paste was homogenized in 50 mM Tris HCl buffer (pH 7.4 @ 4 degrees C.) containing 2.0 mM MgCl2 using a Polytron and spun in a centrifuge at 40,000 g for ten minutes. The final pellet was resuspended in assay buffer (50 mM Tris HCl buffer, pH 7.4, containing 1 mM EDTA, 5 mM MgCl2). Incubations were initiated by the addition of membranes to 96-well plates containing test drugs and [^3H]diprenorphine (0.6 nM final concentration for kappa opioid receptor and 0.5 nM final concentration for mu) in a final volume of 250 μl. Non-specific binding was determined by radioligand binding in the presence of a saturating concentration of naltrexone (10 μM). After a one hour incubation period at room temperature, assay samples were rapidly filtered through PEI coated, GF/B fired Unifilter plates (PerkinElmer) and rinsed with ice-cold 50 mM Tris buffer (pH 7.4). Membrane bound [^3H]diprenorphine levels were determined by liquid scintillation counting of the filterplates in Ecolume scintillation fluid. The IC50 value (concentration at which 50% inhibition of specific binding occurs) was calculated using a logistic 4 parameter fit model of the concentration-response data. Ki values were calculated according to the Cheng Prusoff equation, Ki=IC50/(1+(L/Kd)), where L is the concentration of the radioligand used in the experiment and the Kd value is the dissociation constant for the radioligand (determined previously by saturation analysis).

The target of data set [4] is T2, kappa opioid receptor. In words: Progressive ratio responding (reversal of spiradoline-induced deficit in motivation). The format is in vivo. The conditions noted are these: co-administered with spiradoline, receptor occupancy measured in a separate group of animals.
Description: as §2
Progressive Ratio Responding:
Motivation and food-reinforced operant behavior were assessed in the progressive ratio assay. Adult male C576BL/J6 mice were food-restricted to 80-85% of their body weight over a period of one week and kept in their home cages. Mice were trained to nose-poke for a food reward. […] Mice were assessed in a 60 minute session, where the number of rewards obtained was used as a surrogate of the level of motivation. Once mice had reached a stable level of responding, mice were dosed with the kappa opioid receptor agonist, spiradoline (3.2 mg/kg s.c.), to induce a deficit in motivation. Mice were co-administered increasing doses of the kappa opioid receptor antagonists (0.0032-3.2 mg/kg s.c.) to assess their ability to antagonize the spiradoline-induced deficit.

Data set [5] can be described thus: In vitro intrinsic clearance in human liver microsomes. The format is in vitro ADME. As to the method: Determination of In Vitro Intrinsic Clearance in Human Liver Microsomes:
Compounds were prepared as solutions in methanol. The final concentration of methanol in the incubation media was 0.2% (v/v). […] The total incubation volume was 1 mL. The reaction mixture was pre-warmed at 37° C. for 2 min before adding NADPH (1.2 mM). Aliquots (75 μL) of the reaction mixture at 0, 5, 10, 15, and 30 min were added to acetonitrile (200 μL) containing internal standard (terfenadine)(0.05 μg/mL), and the samples were centrifuged at 2500 g for 5 min prior to liquid chromatography/tandem mass spectrometry (LC/MS-MS) analysis of each compound using multiple reaction monitoring (MRM). For control experiments, NADPH was omitted from these incubations.
The microsomal half-life (t1/2) was obtained from a log-linear plot of the substrate depletion vs incubation time and was scaled to hepatic intrinsic clearance (CLint) using the following equation, in which the term t1/2 refers to the in vitro half-life: […]

A further data set deals with major CYP450 isozymes. The data set can be described thus: CYP450 DDI cocktail assay (reversible inhibition, all isozymes together). The format is in vitro ADME, human. The conditions noted are these: CYP450 DDI cocktail assay, isozymes inhibited in brackets. On the procedure: Multi-Point Cocktail DDI IC50 Assay Conditions:
Standard marker activity substrates were incubated with pooled human liver microsomes (HL-MIX-102) in the presence of NADPH (1.2 mM) in 100 mM KH2PO4, pH 7.4 containing 3.3 mM MgCl2 at 37° C. The incubation volume was 0.1 mL, utilizing a 384-well plate format. The microsomal protein concentrations (0.1 mg/mL) and P450 concentration (0.035 μM) was used for each probe substrate at the following concentrations [tacrine (1A2) 2 uM; diclofenac (2C9) 5 μM; dextromethorphan (2D6) 5 μM; midazolam (3A4) 2 μM; taxol (2C8) 5 μM; S-mephenytoin (2C19) 40 μM]. Substrate concentrations were near Km values that had been previously determined and incubation times were selected based on determinations of reaction velocity linearity. Each test compound/prototypical inhibitors was tested at a concentration range of 0-30 μM in triplicate, in final vehicle solvent concentrations of 0.9% acetonitrile and 0.1% DMSO. Incubations were initiated with the addition of NADPH. At the end of the incubation period, termination solvent containing internal standard was added, the terminated incubation mixture was centrifuged to precipitate microsomal protein. Samples were directly injected on an HPLC-MS/MS system. A Biomek FX workstation was used for liquid handling and sample incubation.
Reversible CYP450 inhibitory potential for each compound was assessed using the CYP450 DDI cocktail assay, measuring the inhibition of the metabolism of a known probe substrate of each of the major CYP isozymes at 3 μM concentration.

[6] abbreviates: Table 19, geometric mean of 2-6 determinations unless otherwise indicated (Example 3: >=7), read-out: hMOR binding assay Ki.
Where [7] appears, read: Table 20, radioligand binding, read-out: hMOR binding assay Ki.
The mark [8] stands for this setting: Table 19, geometric mean of 2-6 determinations unless otherwise indicated (Example 3: >=7), read-out: hKOR binding assay Ki.
The mark [9] stands for this setting: Table 20, radioligand binding, read-out: hKOR binding assay Ki.

“Also recorded” adds a separate entry of the source. Read-outs that look alike come from different tables or passages of the source.

T1 sequence (P35372 whole entry): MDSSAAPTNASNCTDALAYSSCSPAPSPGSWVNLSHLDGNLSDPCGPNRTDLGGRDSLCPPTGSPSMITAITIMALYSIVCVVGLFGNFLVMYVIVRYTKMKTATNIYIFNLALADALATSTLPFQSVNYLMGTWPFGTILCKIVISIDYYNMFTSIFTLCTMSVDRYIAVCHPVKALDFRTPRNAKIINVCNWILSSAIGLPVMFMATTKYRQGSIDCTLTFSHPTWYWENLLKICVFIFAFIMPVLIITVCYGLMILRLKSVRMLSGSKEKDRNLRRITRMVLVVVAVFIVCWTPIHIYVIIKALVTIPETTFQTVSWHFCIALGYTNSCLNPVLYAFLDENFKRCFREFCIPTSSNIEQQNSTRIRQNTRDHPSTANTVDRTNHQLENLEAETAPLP
T3 sequence (P41145 whole entry): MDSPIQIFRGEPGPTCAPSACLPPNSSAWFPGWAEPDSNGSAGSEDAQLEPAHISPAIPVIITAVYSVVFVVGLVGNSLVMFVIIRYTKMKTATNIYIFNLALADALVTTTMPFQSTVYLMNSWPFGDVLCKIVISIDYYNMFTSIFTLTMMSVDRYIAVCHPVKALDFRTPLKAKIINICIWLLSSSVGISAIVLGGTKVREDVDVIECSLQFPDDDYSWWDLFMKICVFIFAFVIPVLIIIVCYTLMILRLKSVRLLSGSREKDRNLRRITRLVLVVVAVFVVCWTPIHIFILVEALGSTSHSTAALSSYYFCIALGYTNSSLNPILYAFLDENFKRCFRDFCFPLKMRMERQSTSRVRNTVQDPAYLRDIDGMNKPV
T2 sequence (P33534 whole entry): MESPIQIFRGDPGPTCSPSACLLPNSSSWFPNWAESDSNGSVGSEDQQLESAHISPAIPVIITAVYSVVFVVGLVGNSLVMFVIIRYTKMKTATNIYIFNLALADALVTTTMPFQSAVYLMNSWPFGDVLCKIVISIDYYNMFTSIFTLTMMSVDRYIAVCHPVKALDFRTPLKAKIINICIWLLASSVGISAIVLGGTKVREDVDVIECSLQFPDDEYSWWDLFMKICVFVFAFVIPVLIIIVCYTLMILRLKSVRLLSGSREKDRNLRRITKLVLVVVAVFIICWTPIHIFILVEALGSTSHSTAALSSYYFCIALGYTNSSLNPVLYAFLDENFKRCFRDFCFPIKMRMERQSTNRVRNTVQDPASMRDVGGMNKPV

`Cc1cc([C@@H]2CCCN2Cc2ccc(Oc3ccc(C(N)=O)cc3F)cc2)n(C)n1` [Example 45, 4-(4-{[(2S)-2-(1,3-dimethyl-1H-pyrazol-5-yl)pyrrolidin-1-yl]methyl}phenoxy)-3-fluorobenzamide]: the Ki was 108 nM in data set [1] (setting [6]), 108 nM in data set [1] (setting [7]), 1.7 nM in data set [3] (setting [8]) and 1.7 nM in data set [3] (setting [9]). Moreover, the “displacement of KOR agonist radioligand binding in the brain, in words” value at kappa opioid receptor [2] was “displaced KOR agonist radioligand ([^3H]GR103545) binding in the brain in an exposure-dependent manner”. Further, the concentration for half-maximal inhibition (IC50) at kappa opioid receptor [2] (displacement of [3H]GR103545, unbound brain concentration, read-out: Mouse KOR IVRO unbound brain IC50) was determined as 0.25 nM. Moreover, the “KOR potency, in words” value in data set [3] is recorded as “excellent potency”. Moreover, the “selectivity for KOR over MOR, in words” value in data set [3] was “excellent potency and selectivity over MOR; also recorded: more selective than the phenyl examples, Comparators A and B”. Also, in data set [3], the “Selectivity hMOR/hKOR” value is 64. In addition, at kappa opioid receptor [4], the “% KOR IVRO to achieve 50% PR reversal” value amounted to 85%.

With `COc1cc(C2CCCN2Cc2ccc(Oc3ccc(C(N)=O)cc3)cc2)n(C)n1` (single isomer, unassigned) [Example 46, 4-(4-{[2-(3-methoxy-1-methyl-1H-pyrazol-5-yl)pyrrolidin-1-yl]methyl}phenoxy)benzamide], in data set [5], the “hepatic / metabolic clearance in human liver microsomes, in words” value is “higher metabolic clearance”. In data set [5] (human, pH 7.4, human liver microsomal intrinsic clearance, read-out: HLM CLint), the CLint scaled at 2 μM was found to be 105 mL/min/kg. For the same compound, the Ki was 25 nM in data set [1] (setting [6]), 25 nM in data set [1] (setting [7]), 0.657 nM in data set [3] (setting [8]) and 0.657 nM in data set [3] (setting [9]). The “Selectivity hMOR/hKOR” value in data set [3] is listed as 38. For the same compound, in the data set with major CYP450 isozymes, the “>25% reversible inhibition of CYP activity at 3 μM (CYP)” value is “no”.

`Cc1cc(C2CCCN2Cc2ccc(Oc3ccc(C(N)=O)cc3F)cc2)no1` (stereo not shown) [Example 40]: the Ki in data set [1] (setting [6]) amounted to 299 nM; in data set [1] (setting [7]) it was 299 nM; in data set [3] (setting [8]), 139 nM; in data set [3] (setting [9]), 139 nM. Also, in data set [3], the “KOR potency, in words” value is “low KOR potency”. The “Selectivity hMOR/hKOR” value in data set [3] is 2.2.

Regarding `COc1nn(C)cc1C1CCCN1Cc1ccc(Oc2ccc(C(N)=O)cc2)c(F)c1` (single isomer, unassigned) [Example 32, 4-(2-fluoro-4-{[2-(3-methoxy-1-methyl-1H-pyrazol-4-yl)pyrrolidin-1-yl]methyl}phenoxy)benzamide], the Ki in data set [1] (setting [6]) was 112 nM; in data set [3] (setting [8]), 2.47 nM.

As for `Cc1cc(C2CCCN2Cc2ccc(Oc3ccc(C(N)=O)cc3F)cc2)on1` (stereo not shown) [Example 42], the Ki in data set [1] (setting [6]) was 318 nM; in data set [1] (setting [7]), 318 nM; in data set [3] (setting [8]), 54.7 nM; in data set [3] (setting [9]), 54.7 nM. In addition, the “KOR potency, in words” value in data set [3] is “low KOR potency”. For the same compound, the “Selectivity hMOR/hKOR” value in data set [3] was 5.8.

In the case of `Cc1nn(C)cc1C1CCCN1Cc1ccc(Oc2ccc(C(N)=O)c(O)c2)cc1` (racemic) [Example 16, (+/−)-4-(4-{[2-(1,3-Dimethyl-1H-pyrazol-4-yl)pyrrolidin-1-yl]methyl}phenoxy)-2-hydroxybenzamide], the Ki in data set [1] (setting [6]) is 159 nM; in data set [3] (setting [8]), 9.67 nM.

As for `COc1nn(C)cc1C1CCCN1Cc1ccc(Oc2ccc(C(N)=O)c(O)c2)cc1` (single isomer, unassigned) [Example 33, 2-hydroxy-4-(4-{[2-(3-methoxy-1-methyl-1H-pyrazol-4-yl)pyrrolidin-1-yl]methyl}phenoxy)benzamide], the figures for the Ki in data set [1] (setting [6]) and in data set [3] (setting [8]) were 52.2 nM and 1.69 nM, respectively.

Regarding `COc1nn(C)cc1C1COCCN1Cc1ccc(Oc2ccc(C(N)=O)cc2)c(F)c1` (single isomer, unassigned) [enantiomer of Example 22, 4-(2-fluoro-4-{[3-(3-methoxy-1-methyl-1H-pyrazol-4-yl)morpholin-4-yl]methyl}phenoxy)benzamide], the Ki in data set [1] (radioligand binding, [3H]diprenorphine, read-out: hMOR Ki) was above 564 nM; in data set [3] (radioligand binding, [3H]diprenorphine, read-out: hKOR Ki) it was 263 nM.

For `Cc1nn(C)cc1C1CCCN1Cc1ccc(Oc2ccc(C(N)=O)c(O)c2)cc1` (single isomer, unassigned; (+)) [Example 17, (+)-4-(4-{[2-(1,3-Dimethyl-1H-pyrazol-4-yl)pyrrolidin-1-yl]methyl}phenoxy)-2-hydroxybenzamide], the Ki amounted to 108 nM in data set [1] (setting [6]) and 27 nM in data set [3] (setting [8]).
